Measured values published in PubChem BioAssay AID1963829 (Molecular Pharmacology Branch, DTP, NCI, 2024).
“And” between values parts separate entries of the source, which are not always exact repeats. Identical values can stand only once.

Tested on: 935938-334-R-J1-PDC complex spheroid viability
Assay: Anticancer human tumor 935938-334-R-J1-PDC patient-derived small intestine adenocarcinoma cell line growth inhibition [POLQ]
Details: for viability, T/C: stronger effect = lower value
Description: Multicellular complex tumor spheroid response to Polymerase (POL) inhibitors (novobiocin, ART-558, RP6685) in combination with a variety of drugs and investigational agents in selected tumor cell lines
The POL inhibitors (novobiocin, ART-558, and RP6685) were evaluated both individually and in combination with standard of care and investigational anticancer small molecules within a complex spheroid model of solid tumors. . Complex spheroids include a stromal component modeled by human endothelial cells (HUVEC) and fibroblasts modeled by human mesenchymal stem cells (MSCs). The concentration ranges selected for each drug and investigational agent were based upon clinically achievable concentrations if the clinical Cmax of the agent was known.
Compounds. The drugs and investigational agents: novobiocin (NSC847541), ART-558 (NSC835418), RP-6685 (NSC848927), peposertib (NSC802822), ceralasertib (NSC780249), elimusertib (NSC800525), camonsertib (NSC841442), AZD-1390 (NSC803789), olaparib (NSC753686), talazoparib (NSC767125), rucaparib (NSC756644), sotorasib (NSC818433), MRTX-1133 (NSC836407), SN-38 (NSC673596), topotecan (NSC609699), epotoside (NSC141540), doxorubicin (NSC123127), gemcitabine (NSC613327), 5-fluorouracil (NSC19893), paclitaxel (NSC125973), vemurafenib (NSC761431), MSA-2 (NSC828583), SN-011 (NSC837082), adavosertib (NSC754352), prexasertib (NSC758257), carboplatin (NSC241240) and oxaliplatin (NSC266046), were obtained from the National Cancer Institute (NCI) Developmental Therapeutics Program Chemical Repository (21). The FDA-approved anticancer drug set is available from the Developmental Therapeutics Program at https://dtp.cancer.gov/organization/dscb/obtaining/. […] The stock solutions were prepared in dimethyl sulfoxide (DMSO, Sigma-Aldrich, St. Louis, MO, cat. D2650), except for the platinum compounds which were prepared in saline (Quality Biological, Gaithersburg, MD, cat. 114-055-101), at 800-fold the tested concentration and stored at -70 degrees C prior to their use. All drugs and investigational agents were tested over a range starting from a high concentration at or near the clinical Cmax and decreasing in half-log increments. If the clinical Cmax for an agent had not been determined, the highest concentration tested was 10 microM, except for SN-38, which was tested at a high concentration of 1 microM.
Cell Culture. All cells were maintained in an incubator at 37 degrees C and 5% CO2 with 95% humidity. The PDC lines were cultured according to standard operating procedures established by the NCI PDMR (https://pdmr.cancer.gov). Table 3 of the manuscript, lists the cell lines along with the number of the three cell types plated to form the mct-spheroids and media for tumor cell growth. After thawing, all PDC lines, except 997537-175-T-J1-PDC and 415267-285-R-J2-PDC, were cultured in Matrigel-coated flasks prepared with a working solution of 1X Ham's F-12 nutrient mix, without supplementation (Thermo Fisher Scientific, cat. 11765054), 100 U/mL penicillin-streptomycin (Thermo Fisher Scientific, cat. 15140122), and 2.5% Matrigel (Corning Inc., Corning, NY, cat. 354248) for the first three passages. The two PDC lines 997537-175-T-J1-PDC and 415267-285-R-J2-PDC were cultured on uncoated flasks. The 857933-349-R-J2-PDC line was cultured in 6C/Colon 1B media containing advanced DMEM/F-12 (Thermo Fisher Scientific, cat. 12634028), 10 mM HEPES (Thermo Fisher Scientific, cat. 15630080), 1X GlutaMAX supplement (Thermo Fisher Scientific, cat. 35050061), 0.1 mg/mL primocin (InvivoGen, San Diego, CA, cat. ant-pm-2), 10% defined fetal bovine serum, heat inactivated (HyClone Laboratories Inc., Logan, UT, cat. SH30070.03HI), 50% L-WRN conditioned media (ATCC, cat. CRL-3276), 1.25 mM N-Acetyl-L-cysteine (Sigma-Aldrich, cat. A9165), 10 mM nicotinamide (Sigma-Aldrich, cat. N0636), 1X B-27 supplement (Thermo Fisher Scientific, cat. 17504044), 1X N-2 supplement (Thermo Fisher Scientific, cat. […]

[1] = curve of first compound, second compound 0.0316 µM
[2] = curve of first compound, second compound 0.1 µM
[3] = curve of first compound, second compound 0.316 µM
[4] = curve of first compound, second compound 1 µM
[5] = curve of first compound, second compound 3.16 µM
[6] = curve of first compound, second compound 10 µM
[7] = second compound 0.0316 µM, first compound 0.0316 µM
[8] = second compound 0.0316 µM, first compound 0.1 µM
[9] = second compound 0.1 µM, first compound 0.0316 µM
[10] = second compound 0.1 µM, first compound 0.1 µM
[11] = second compound 0.316 µM, first compound 0.0316 µM
[12] = second compound 0.316 µM, first compound 0.1 µM
[13] = second compound 1 µM, first compound 0.0316 µM
[14] = second compound 1 µM, first compound 0.1 µM
[15] = second compound 3.16 µM, first compound 0.0316 µM
[16] = second compound 3.16 µM, first compound 0.1 µM
[17] = second compound 10 µM, first compound 0.0316 µM
[18] = second compound 10 µM, first compound 0.1 µM
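Further: spheroids exposed to drugs for seven days before viability read.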
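Wherever viability, T/C is given: 100% = DMSO vehicle control wells.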

COc1ccc([C@@H](O)c2cc(-c3ncnc4cc(N5CCOCC5)ccc34)c(F)cc2Cl)nn1 + Cc1cccc(N(C)C(=O)C2C(O)CCN2c2nc(C)cc(C(F)(F)F)c2C#N)c1 gave an IC50 [1] of 6.02 µM, an IC50 [2] of 4.28 µM and an IC50 [3] of 3.2 µM. For the same molecule, the IC50 [4] was 6.41 µM, the IC50 [5] was 3.7 µM and the IC50 [6] was 2.58 µM. For the same molecule, the viability, T/C [7] was 79.3%, the viability, T/C [8] was 117% and the viability, T/C (second compound 0.0316 µM, first compound 0.316 µM) was 76.8%. It also gave a viability, T/C (second compound 0.0316 µM, first compound 1 µM) of 79.1%, a viability, T/C (second compound 0.0316 µM, first compound 3.16 µM) of 63.8% and a viability, T/C (second compound 0.0316 µM, first compound 10 µM) of 39.9%. For the same molecule, the viability, T/C [9] was 75.3%, the viability, T/C [10] was 98.1% and the viability, T/C (second compound 0.1 µM, first compound 0.316 µM) was 69.6%. It also gave a viability, T/C (second compound 0.1 µM, first compound 1 µM) of 60.3%, a viability, T/C (second compound 0.1 µM, first compound 3.16 µM) of 61.4% and a viability, T/C (second compound 0.1 µM, first compound 10 µM) of 34.5%. For the same molecule, the viability, T/C [11] was 116%, the viability, T/C [12] was 98.9% and the viability, T/C (second compound 0.316 µM, first compound 0.316 µM) was 97.6%. It also gave a viability, T/C (second compound 0.316 µM, first compound 1 µM) of 75.8%, a viability, T/C (second compound 0.316 µM, first compound 3.16 µM) of 48.2% and a viability, T/C (second compound 0.316 µM, first compound 10 µM) of 30.3%. The viability, T/C [13] was 90.6%, the viability, T/C [14] was 80.2% and the viability, T/C (second compound 1 µM, first compound 0.316 µM) was 83.4%. The viability, T/C (second compound 1 µM, first compound 1 µM) was 97.6%, the viability, T/C (second compound 1 µM, first compound 3.16 µM) was 72.7% and the viability, T/C (second compound 1 µM, first compound 10 µM) was 35.8%. For the same molecule, the viability, T/C [15] was 101%, the viability, T/C [16] was 85% and the viability, T/C (second compound 3.16 µM, first compound 0.316 µM) was 81.8%. For the same molecule, the viability, T/C (second compound 3.16 µM, first compound 1 µM) was 67.2%, the viability, T/C (second compound 3.16 µM, first compound 3.16 µM) was 55% and the viability, T/C (second compound 3.16 µM, first compound 10 µM) was 33.1%. For the same molecule, the viability, T/C [17] was 103%, the viability, T/C [18] was 80.8% and the viability, T/C (second compound 10 µM, first compound 0.316 µM) was 85.6%. The viability, T/C (second compound 10 µM, first compound 1 µM) was 59.9%, the viability, T/C (second compound 10 µM, first compound 3.16 µM) was 48.9% and the viability, T/C (second compound 10 µM, first compound 10 µM) was 28.4%.

In the case of CC(C)n1c(=O)n(C)c2cnc3cc(F)c(-c4ccc(OCCCN5CCCCC5)nc4)cc3c21, the viability, T/C (compound 0.0316 µM) is reported as 75.1% and 94.3% and 79.1%, the viability, T/C (compound 0.1 µM) is reported as 104% and 75.2% and 67.4% and the viability, T/C (compound 0.316 µM) is reported as 103% and 102% and 65.2%. For the same molecule, the viability, T/C (compound 1 µM) was 92.1% and 121% and 73.4%, the viability, T/C (compound 3.16 µM) was 113% and 120% and 72.1% and the viability, T/C (compound 10 µM) was 94.9% and 91.5% and 72.9%. The IC50 (curve of compound) was over 10 µM.

For Nc1ccn(C2OC(CO)C(O)C2(F)F)c(=O)n1 (stereo not drawn), the viability, T/C (compound 0.0316 µM) was 39.8% and 30.9% and 30.5%, the viability, T/C (compound 0.1 µM) was 26.2% and 19.4% and 23.6% and the viability, T/C (compound 0.316 µM) was 23.7% and 17.5% and 14.9%. For the same molecule, the viability, T/C (compound 1 µM) was 22.1% and 18.1% and 16%, the viability, T/C (compound 3.16 µM) was 20.7% (2×) and 16.5% and the viability, T/C (compound 10 µM) was 18.4% and 16% and 17.2%. It also gave an IC50 (curve of compound) of under 0.0316 µM.

With Cn1ncnc1[C@H]1c2n[nH]c(=O)c3cc(F)cc(c23)N[C@@H]1c1ccc(F)cc1 + COC1C(OC(N)=O)C(O)C(Oc2ccc3c(O)c(NC(=O)c4ccc(O)c(CC=C(C)C)c4)c(=O)oc3c2C)OC1(C)C the IC50 [1] was over 0.1 µM, the IC50 [2] was over 0.1 µM and the IC50 [3] was over 0.1 µM. For the same molecule, the IC50 [4] was over 0.1 µM, the IC50 [5] was over 0.1 µM and the IC50 [6] was over 0.1 µM. The viability, T/C (second compound 0.0316 µM, first compound 0.000316 µM) was 101%, the viability, T/C (second compound 0.0316 µM, first compound 0.001 µM) was 106% and the viability, T/C (second compound 0.0316 µM, first compound 0.00316 µM) was 85.8%. It also gave a viability, T/C (second compound 0.0316 µM, first compound 0.01 µM) of 83.9%, a viability, T/C [7] of 92.9% and a viability, T/C [8] of 83.2%. For the same molecule, the viability, T/C (second compound 0.1 µM, first compound 0.000316 µM) was 96.5%, the viability, T/C (second compound 0.1 µM, first compound 0.001 µM) was 113% and the viability, T/C (second compound 0.1 µM, first compound 0.00316 µM) was 103%. It also gave a viability, T/C (second compound 0.1 µM, first compound 0.01 µM) of 89.8%, a viability, T/C [9] of 88.5% and a viability, T/C [10] of 83.5%. For the same molecule, the viability, T/C (second compound 0.316 µM, first compound 0.000316 µM) was 94.7%, the viability, T/C (second compound 0.316 µM, first compound 0.001 µM) was 73.8% and the viability, T/C (second compound 0.316 µM, first compound 0.00316 µM) was 97.6%. For the same molecule, the viability, T/C (second compound 0.316 µM, first compound 0.01 µM) was 115%, the viability, T/C [11] was 103% and the viability, T/C [12] was 89.5%. It also gave a viability, T/C (second compound 1 µM, first compound 0.000316 µM) of 84%, a viability, T/C (second compound 1 µM, first compound 0.001 µM) of 105% and a viability, T/C (second compound 1 µM, first compound 0.00316 µM) of 121%. The viability, T/C (second compound 1 µM, first compound 0.01 µM) was 94.8%, the viability, T/C [13] was 90.8% and the viability, T/C [14] was 70.6%. It also gave a viability, T/C (second compound 3.16 µM, first compound 0.000316 µM) of 101%, a viability, T/C (second compound 3.16 µM, first compound 0.001 µM) of 102% and a viability, T/C (second compound 3.16 µM, first compound 0.00316 µM) of 84.3%. The viability, T/C (second compound 3.16 µM, first compound 0.01 µM) was 84.6%, the viability, T/C [15] was 61.7% and the viability, T/C [16] was 90%. For the same molecule, the viability, T/C (second compound 10 µM, first compound 0.000316 µM) was 128%, the viability, T/C (second compound 10 µM, first compound 0.001 µM) was 92.7% and the viability, T/C (second compound 10 µM, first compound 0.00316 µM) was 85.4%. It also gave a viability, T/C (second compound 10 µM, first compound 0.01 µM) of 105%, a viability, T/C [17] of 78.7% and a viability, T/C [18] of 95.8%.
